In one series the target is T1, Adenosine receptor A2b (Homo sapiens, UniProt P29275).
T1 sequence (P29275 whole entry): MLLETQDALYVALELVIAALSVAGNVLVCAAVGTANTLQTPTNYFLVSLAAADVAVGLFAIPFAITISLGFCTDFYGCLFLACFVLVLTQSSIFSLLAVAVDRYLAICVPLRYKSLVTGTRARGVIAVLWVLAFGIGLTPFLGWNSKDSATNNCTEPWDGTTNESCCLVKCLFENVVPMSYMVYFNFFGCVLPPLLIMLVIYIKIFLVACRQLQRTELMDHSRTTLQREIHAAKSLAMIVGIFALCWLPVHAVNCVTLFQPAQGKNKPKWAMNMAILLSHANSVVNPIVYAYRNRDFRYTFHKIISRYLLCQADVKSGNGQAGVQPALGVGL
In words: Displacement of [3H]DPCPX from human A2B adenosine receptor expressed in HEK293 cell membranes after 60 mins by radioligand displacement assay. For orientation: Loss of bound radioactivity is the signal in a displacement assay; it reports binding, not function.

For series [1], the species on record is Homo sapiens. In words: Selectivity index, ratio of IC50 for human A1 adenosine receptor expressed in CHO cell membranes to IC50 for human A2B adenosine receptor expressed in HEK293 cell membranes. Type of series: cell-based.
For series [2], the species on record is Homo sapiens. Description: Selectivity index, ratio of IC50 for human A2A adenosine receptor expressed in HEK293 cell membranes to IC50 for human A2B adenosine receptor expressed in HEK293 cell membranes. The class given is cell-based.
For series [3], the species on record is Homo sapiens. In words: Selectivity index, ratio of IC50 for human A3 adenosine receptor expressed in HEK293 cell membranes to IC50 for human A2B adenosine receptor expressed in HEK293 cell membranes. The class given is cell-based.
Series [4] in a line: Intrinsic clearance in rat hepatocytes by MS/MS analysis. The following applies: read-out: CLH (converted). Type of series: ADME, cell-based, Hepatocyte.

Take `COCCn1c(=O)n(CCc2ccccc2)c(=O)c2c(C)c(C(N)=O)sc21`: the half-inhibitory concentration (IC50) (in general, the concentration that inhibits the measured activity by half) on Adenosine receptor A2b stood at 430 nM. Also, the Ratio IC50 stood at 8 in the series filed under Homo sapiens [1], 18 in the series listed under Homo sapiens [2] and 16 in the series listed under Homo sapiens [3]. Further, the predicted hepatic clearance in series [4] was 65 mL/min/kg.
Taken in the same sequence, the figures for `COCCn1c(=O)n(CCc2ccccc2)c(=O)c2c(C)c(Cc3nc[nH]c3C)sc21` were 2.4 nM, 93, 180, 2800 and 66.7 mL/min/kg.
For `CCN(CC)C(=O)c1sc2c(c1N)c(=O)n(C)c(=O)n2C`, in that order: above 10000 nM, 0.62, 0.73, 0.61 and 53.3 mL/min/kg.
Taken in the same sequence, the figures for `COCCn1c(=O)n(CCc2ccccc2)c(=O)c2c(C)c(C(O)C3CC3)sc21` (centres undefined) were 14 nM, 10, 11, 480 and 68.3 mL/min/kg.
In the case of `CCn1c(=O)c2c(C)c(C(=O)N3CC(O)C3)sc2n(CCC(F)(F)F)c1=O`, on Adenosine receptor A2b, the IC50 turned out to be 200 nM. The Ratio IC50 amounted to 8 in the series listed under Homo sapiens [1], 7 in the series filed under Homo sapiens [2] and 32 in the series filed under Homo sapiens [3]. For the same compound, the predicted hepatic clearance in series [4] is 6.83 to 10 mL/min/kg.
`Cc1csc2c1c(=O)n(CCc1ccccc1)c(=O)n2Cc1cnc[nH]1` returned an IC50 at Adenosine receptor A2b of 1300 nM. Further, the Ratio IC50 came out at 3 in the series listed under Homo sapiens [1], 8 in the series listed under Homo sapiens [2] and 5 in the series filed under Homo sapiens [3]. The predicted hepatic clearance in series [4] was 46.7 mL/min/kg.
`COCCn1c(=O)n(CCc2ccccc2)c(=O)c2c(C)c(C(C)(O)C3CC3)sc21` (centres undefined) came in with an IC50 on Adenosine receptor A2b of 150 nM. The Ratio IC50 was determined as 2 in the series listed under Homo sapiens [1], 6 in the series listed under Homo sapiens [2] and 45 in the series filed under Homo sapiens [3]. Moreover, the predicted hepatic clearance in series [4] is 66.7 mL/min/kg.
Taken in the same sequence, the figures for `COCCn1c(=O)n(CCc2cccnc2)c(=O)c2c(C)csc21` were 280 nM, 39, 29, 23 and 61.7 mL/min/kg.
As for `Cc1csc2c1c(=O)n(CCc1ccccc1)c(=O)n2CCC(F)(F)F`, the IC50 at Adenosine receptor A2b is 56 nM. Moreover, the Ratio IC50 is 25 in the series filed under Homo sapiens [1], 81 in the series filed under Homo sapiens [2] and 120 in the series filed under Homo sapiens [3]. Besides, in series [4], the predicted hepatic clearance is 66.7 mL/min/kg.
Consider `COCCn1c(=O)n(CCc2ccccc2)c(=O)c2c(C)c(C(=O)O)sc21`, for which, at Adenosine receptor A2b, the concentration for half-maximal inhibition (IC50) is 2100 nM. In addition, the Ratio IC50 in the series filed under Homo sapiens [1] and in the series listed under Homo sapiens [2] was 5 each time. Further, the predicted hepatic clearance in series [4] is 55 mL/min/kg.
Compound `Cc1csc2c1c(=O)n(CCc1ccccc1F)c(=O)n2CCC(F)(F)F` came in with an IC50 on Adenosine receptor A2b of 73 nM. In addition, the Ratio IC50 in the series listed under Homo sapiens [1] was found to be 36; in the series filed under Homo sapiens [2] it was 86; in the series listed under Homo sapiens [3], 91. Further, the predicted hepatic clearance in series [4] is 68.3 mL/min/kg.
Taken in the same sequence, the figures for `COCCn1c(=O)n(CCc2ccccc2)c(=O)c2c(C)c(Cn3ccnc3)sc21` were 12 nM, 33, 120, 530 and 58.3 mL/min/kg.
Taken in the same sequence, the figures for `Cc1csc2c1c(=O)n(CCc1cccnc1)c(=O)n2CCC(F)(F)F` were 55 nM, 40, 21, 120 and 66.7 mL/min/kg.
For `Cc1[nH]cnc1Cn1c(=O)n(CCc2ccccc2)c(=O)c2c(C)csc21`, in that order: 3400 nM, 3, 3, 2 and 56.7 mL/min/kg.
As to `CCN(CC(C)(C)O)C(=O)c1sc2c(c1C)c(=O)n(CC)c(=O)n2CCC(F)(F)F`, the IC50 on Adenosine receptor A2b is 39 nM. In addition, the figures for the Ratio IC50 in the series listed under Homo sapiens [1], in the series listed under Homo sapiens [2] and in the series filed under Homo sapiens [3] were 11, 19 and 170, respectively. For the same compound, the predicted hepatic clearance in series [4] is 35 mL/min/kg.
`Cc1csc2[nH]c(=O)n(CCc3ccccc3)c(=O)c12`: the IC50 at Adenosine receptor A2b was found to be 480 nM. Further, the Ratio IC50 in the series filed under Homo sapiens [1] stood at 6; in the series filed under Homo sapiens [3] it was 14. For the same compound, in series [4], the predicted hepatic clearance was 58.3 mL/min/kg.
For `CCN(CC)C(=O)c1sc2c(c1C)c(=O)n(CCOC)c(=O)n2CCC(F)(F)F`, the IC50 on Adenosine receptor A2b was found to be 97 nM. Also, the Ratio IC50 in the series listed under Homo sapiens [1] worked out at 22; in the series listed under Homo sapiens [2] it was 0.83; in the series listed under Homo sapiens [3] it was 68. The predicted hepatic clearance in series [4] is 60 mL/min/kg.
`COCCn1c(=O)n(CCc2ccccc2)c(=O)c2c(C)c(C(=O)N3CC(O)C3)sc21`: the IC50 at Adenosine receptor A2b came to 200 nM. Also, the predicted hepatic clearance in series [4] was 61.7 mL/min/kg.
In turn, `COCCn1c(=O)n(CC(F)(F)c2ccccc2)c(=O)c2c(C)csc21` displayed an IC50 at Adenosine receptor A2b of 440 nM. Also, the Ratio IC50 was found to be 9 in the series listed under Homo sapiens [1] and 25 in the series filed under Homo sapiens [2]. For the same compound, in series [4], the predicted hepatic clearance is 66.7 mL/min/kg.
`COCCn1c(=O)n(CCc2ccccc2)c(=O)c2c(C)c(C(O)c3ccccc3)sc21` (centres undefined) yielded an IC50 at Adenosine receptor A2b of 30 nM. In addition, the Ratio IC50 in the series listed under Homo sapiens [1] was found to be 1; in the series filed under Homo sapiens [2], 21; in the series filed under Homo sapiens [3] it was 230. Further, the predicted hepatic clearance in series [4] is 68.3 mL/min/kg.
Taken in the same sequence, the figures for `CCN(CCO)C(=O)c1sc2c(c1C)c(=O)n(CC)c(=O)n2CCC(F)(F)F` were 50 nM, 13, 21, 130 and 40 mL/min/kg.
Take `COCCn1c(=O)n(CCc2ccccc2)c(=O)c2c(C)c(CN3CCCC3)sc21`: on Adenosine receptor A2b, the IC50 was determined as 200 nM. Further, the predicted hepatic clearance in series [4] is 61.7 mL/min/kg.
At Adenosine receptor A2b, `COCCn1c(=O)n(CCc2ccccc2)c(=O)c2c(C)c(Cc3c[nH]c(C)n3)sc21` showed an IC50 of 8.8 nM. In addition, the Ratio IC50 in the series listed under Homo sapiens [1] worked out at 110; in the series filed under Homo sapiens [2], 510; in the series listed under Homo sapiens [3], 750. In addition, the predicted hepatic clearance in series [4] was 61.7 mL/min/kg.
Compound `COCCn1c(=O)n(CCc2ccccc2)c(=O)c2c(C)csc21` gave an IC50 on Adenosine receptor A2b of 300 nM. Moreover, the Ratio IC50 came out at 9 in the series filed under Homo sapiens [1], 37 in the series listed under Homo sapiens [2] and 22 in the series filed under Homo sapiens [3]. Further, the predicted hepatic clearance in series [4] is 66.7 mL/min/kg.
`COCCn1c(=O)[nH]c(=O)c2c(C)csc21` showed an IC50 on Adenosine receptor A2b above 10000 nM. Further, the Ratio IC50 is 1 in the series filed under Homo sapiens [1], 1 in the series listed under Homo sapiens [2] and 0.61 to 1 in the series filed under Homo sapiens [3]. In series [4], the predicted hepatic clearance is 31.7 mL/min/kg.
`CCN(CC)C(=O)c1sc2c(c1C)c(=O)n(CCc1ccccc1)c(=O)n2CCOC`: the IC50 on Adenosine receptor A2b turned out to be 42 nM. In addition, the Ratio IC50 worked out at 23 in the series listed under Homo sapiens [1], 3 in the series filed under Homo sapiens [2] and 160 in the series filed under Homo sapiens [3]. The predicted hepatic clearance in series [4] was 66.7 mL/min/kg.
As for `COCCn1c(=O)n(CCc2ccccc2)c(=O)c2c(C)c(C(=O)N(C)OC)sc21`, on Adenosine receptor A2b, the half-maximal inhibitory concentration (IC50) amounted to 390 nM. The Ratio IC50 in the series filed under Homo sapiens [1] is 9; in the series listed under Homo sapiens [2], 4; in the series listed under Homo sapiens [3], 17.
Taken in the same sequence, the figures for `Cc1csc2c1c(=O)n(CCc1ccccc1)c(=O)n2CCc1ccc(S(N)(=O)=O)cc1` were 1700 nM, 2, 6 and 4.
